In US10137185B2, “PAP peptide analogues” (THE NOTTINGHAM TRENT UNIVERSITY, priority 2014, dated 2018):

Legend:
splenocytes [1] = assay: Peptide immunisation of HHDII/DRI mice, ex vivo IFNγ ELISPOT of splenocytes; type: in vivo
Protocol: FIG. 11. Comparison of IFNγ responses generated by splenocytes isolated from HHDII/DRI mice that have been immunised with PAP-114-128 peptide and PAP-114-128 analogue peptide, as determined using an ex vivo ELISPOT. HHDII/DRI mice were immunised with 100 μg of PAP-114-128 on day 1 and 75 μg of PAP-115-123 on day 14, or 100 μg of PAP-114-128 analogue peptide on day 1 and 75 μg of PAP-115-123 on day 14. Splenocytes were isolated for the ex vivo ELISPOT assay a week after the final immunisation. For the assay, 1×10^6 splenocytes were co-cultured with 1 μg of class I PAP-115-123 peptide or PAP-115-123 analogue peptide or 10 μg of class II PAP-114-128 peptide or PAP-114-128 analogue peptide. Splenocytes with no added peptide were used as control. Comparisons of means (±SEM) between groups (splenocytes pulsed with class I/class II peptide or class I/class II analogue peptide) are made using an unpaired t test. The experiment was performed with three mice per group.
The immunogenic efficiencies of the PAP-115-123 epitope peptide and the PAP-115-123 analogue peptides were further compared using transgenic HHDII/DRI mice. For this, HHDII/DRI mice in the PAP-114-128 peptide immunisation group were immunised with 100 μg of PAP-114-128 on day 1 and 75 μg of PAP-115-123 on day 14. HHDII/DRI mice in the PAP-114-128 analogue peptide immunisation group was immunised with 100 μg of PAP-114-128 analogue peptide on day 1 and 75 μg of PAP-115-123 on day 14. A week after the final immunisation spleens were isolated for the ex vivo ELISPOT assay. For the assay, 1×10^6 splenocytes were co-cultured with 1 μg of class I PAP-115-123 peptide or PAP-115-123 analogue peptide or 10 μg of class II PAP-114-128 peptide or PAP-114-128 analogue peptide. Splenocytes with no added peptide were used as control. […] The experiment was performed with three mice per group.

TRAMP-C1 cells = assay: Ex vivo IFNγ ELISPOT of splenocytes of immunised mice co-cultured with TRAMP-C1 or MC38 cells; type: in vivo, C57Bl/6 mice
Protocol: FIG. 10. Comparison of IFNγ responses generated by splenocytes from mice that have been immunised with PAP-115-123 analogue peptide, and which have been co-cultured with TRAMP-C1 cells and MC38 cells, as determined using an ex vivo ELISPOT. C57Bl/6 mice were immunised with 100 μg of PAP-114-128 analogue peptide on day 1 and 75 μg of PAP-115-123 on day 14. Splenocytes were isolated for the ex vivo ELISPOT assay a week after the final immunisation. For the assay, 1×10^6 splenocytes were co-cultured with 1×10^5 TRAMP-C1 ‘stimulator’ cells. Control wells received 1×10^5 MC38 cells as stimulator cells. Comparisons of means (±SEM) between groups (splenocytes pulsed with TRAMP-C1 or MC38) are made using an unpaired t test. The experiment was performed with three mice per group.
To assess whether the T cells generated following PAP-114-128 analogue peptide immunisation could recognise naturally processed PAP-115-123 epitopes, the IFNγ response of splenocytes from the immunised mice that had been co-cultured with TRAMP-C1 cells (that naturally express PAP) was assessed using the ELISPOT. For this, 1×10^6 splenocytes were co-cultured with 1×10^5 TRAMP-C1 cells as stimulator cells. […] The number of spots generated by co-culture splenocytes with TRAMP-C1 cells was 650, whereas and number of spots obtained when using MC38 cells as stimulators was 100. The experiment was performed with three mice per group.

splenocytes [2] = assay: Peptide immunisation of C57Bl/6 mice, ex vivo IFNγ ELISPOT of splenocytes; type: in vivo; details: for number of spots generated by splenocytes from immunised animals: 100 μg 15-mer day 1, PAP-115-123 day 14, 1×10^6 splenocytes with 1 μg 9-mer peptide, 3 mice
Protocol: FIG. 9. Comparison of IFNγ responses induced by PAP-115-123 peptide and PAP-115-123 analogue peptide immunisation (A) and to varying PAP-115-123 peptide/analogue peptide concentrations (B), as determined using an ex vivo ELISPOT. C57Bl/6 mice in the PAP-115-123 peptide immunisation group were immunised with 100 μg of PAP-114-128 on day 1 and 75 μg of PAP-115-123 on day 14. C57Bl/6 mice in the PAP-115-123 analogue peptide immunisation group were immunised with 100 μg of PAP-114-128 analogue peptide on day 1 and 75 μg of PAP-115-123 on day 14. A week after the final immunisation, spleens were isolated for the ex vivo ELISPOT assay. For the assay, 1×10^6 splenocytes were co-cultured with 1 μg of PAP-115-123 peptide or PAP-115-123 analogue peptide. Splenocytes with no added peptide were used as control. Comparisons of means (±SEM) between groups (splenocytes pulsed with PAP-115-123 peptide or PAP-115-123 analogue peptide) are made with an unpaired t test. The experiment was performed with three mice per group.
The PAP-115-123 peptide which was obtained by altering the second amino acid of the sequence from alanine to […] was predicted to have a higher HLA-2 binding score by the syfpeithi database. The binding score of PAP-115-123 epitope (SAMTNLAAL) (SEQ ID NO. 13) to HLA-A2.1 was 24 and that of the analogue peptide (SLMTNLAAL) (SEQ ID NO. 8) was 30. The immunogenicity of PAP-115-123 epitope and its analogue epitope was assessed by immunising syngeneic C57Bl/6 mice with these peptides. C57Bl/6 mice were immunised with 100 μg of PAP-114-128 on day 1 and […] of PAP-115-123 on day 14 or 100 μg of PAP-114-128 analogue peptide on day 1 and […] of PAP-115-123 on day 14. A week after the final immunisation spleens were isolated for the ex vivo ELISPOT assay. For this, 1×10^6 splenocytes were co-cultured with 1 μg of PAP-115-123 peptide or PAP-115-123 analogue peptide. Splenocytes with no added peptide were used as control. A 2-fold higher IFNγ response by splenocytes from animals immunised with the PAP-114-128 analogue peptide was observed (FIG. 9A). The number of spots in generated by splenocytes from PAP-114-128 immunised animals was 280, whereas the number of spots generated by splenocytes from PAP-114-128 analogue immunised animals was 590. Comparisons of means (±SEM) between groups (splenocytes pulsed with PAP-114-128 peptide or PAP-114-128 analogue peptide) were performed using the unpaired t test, and there were 3 animals in each group. Peptide-specific IFNγ responses generated by splenocytes that had been pulsed with varying concentrations (10, 1, 0.1, 0.01, 0.001 and 0.0001 mg/ml) of PAP-15-123 epitope or analogue epitope were also evaluated.

HLA-A2 = details: WO 2005/090560; cited from earlier work
[3] = test system: PBMCs from HLA-A2 positive patients with prostate cancer and individuals with benign disease; assay: IFNγ ELISPOT of PBMCs from prostate cancer patients and individuals with benign disease after peptide re-stimulation; type: cell-based, human; details: for peptide-specific IFNγ response in samples from individuals with benign disease: 10 benign individuals
Protocol: FIG. 3. IFNγ response of peripheral blood mononuclear cells (PBMCs) isolated from patients with prostate cancer and individuals with benign disease after re-stimulation with PAP-115-123 epitope using an ELISPOT assay. Cryopreserved PBMCs from ten HLA-A2 positive prostate cancer patients and ten benign candidates were compared. The PBMCs were cultured in vitro with 5 μg of PAP-114-128 epitope for 7 days. The cells were then washed and rested overnight and 4×10^4 cells were added to each well of an ELISPOT plate. PAP-115-123 epitope peptide (1 μg) was added per well and cells cultured for 48 hours. The plates were then washed according to the manufacturer's protocol. PBMCs with no added peptide were used as control. Comparisons of means (±SEM) between groups (cells pulsed with PAP-115-123 or no peptide) are made using an unpaired t test.
FIG. 12. IFNγ responses generated by PBMCs isolated from 10 patients with prostate cancer and 10 individuals with benign disease after re-stimulation with the PAP-115-123 analogue epitope peptide, as determined using an ELISPOT assay. PBMCs were cultured in vitro with 5 μg of PAP-114-128 analogue epitope for 7 days. The cells were then washed and rested overnight, at which time and 4×10^4 cells were added to each well of an ELISPOT plate. PAP-115-123 analogue epitope peptide (1 μg) was added to each well and the cells were cultured for 48 hours. The plates were then washed according to the manufacturer's protocol. PBMCs cultured with no added peptide were used as the control. Comparisons of means (±SEM) between groups (PBMCs pulsed with PAP-115-123 analogue or no peptide) are made using an unpaired t test.
To determine the presence of circulating T cells specific for PAP-115-123 in humans, PBMCs from HLA-A2 positive patients with prostate cancer and individuals with benign disease were used. Cryopreserved PBMCs were thawed, washed and restimulated for 7 days with […] epitope peptide. The cells were then washed and rested overnight, at which time 4×10^4 cells were added to each well of an ELISPOT plate. PAP-115-123 epitope peptide (1 μg) was added to each well and the cells cultured for 48 hours. The plates were developed according to the manufacturer's instructions. PBMCs cultured with no peptide were used as controls. […] The number of IFNγ spots generated by PBMCs from one of the patients was as high as 220 (vs 60 spots for the control). The number of spots generated by PBMCs for the other 6 patients with prostate cancer ranged between 50 and 100 (vs 10-20 in controls). Although some of the PBMCs from individuals with benign disease generated 50-100 spots, the number of spots in the control wells was also high.
To determine the presence of circulating T cells specific for PAP-115-123 analogue peptide in humans, PBMCs from HLA-A2 positive patients with prostate cancer and individuals with benign disease were used. Cryopreserved PBMCs were thawed, washed and restimulated for 7 days with […] analogue epitope. The cells were then washed and rested overnight, at which time 4×10^4 cells were added to each well of an ELISPOT plate. 1 μg of PAP-115-123 analogue epitope was added to each well and cells were cultured for 48 hours. The plates were developed as per the manufacturer's instructions. PBMCs cultured with no peptide were used as control. […] The number of IFNγ spots in one of the patients was as high as 180 spots compared to control (54 spots). Similar response was also obtained when PBMCs were co-cultured with PAP-115-123 epitope (FIG. 3). The number of spots generated by PBMCs from the 6 patients with prostate cancer patients ranged between 50 and 100 (vs 10-20 in control wells). Although some of the samples from individuals with benign disease generated 50-100 spots, the number of spots in the control wells was also high.

Substance: MSLMTNLAALFPPEG (PAP with A-L mutation at position 3 of peptide) [PAP-114-128 analogue peptide]
- immune response on the basis of the IFNγ response, compared to immunisation with PAP-114-128 (splenocytes [1]; discussion): significantly more potent
- number of spots, MC38 cells as stimulators (TRAMP-C1 cells; 1×10^5 MC38 cells (do not express PAP)): 100 spots
- number of spots, splenocytes co-cultured with TRAMP-C1 cells (TRAMP-C1 cells; 1×10^6 splenocytes, 1×10^5 TRAMP-C1 cells (naturally express PAP)): 650 spots
- lysis of TRAMP-C1 cells by T cells generated in C57Bl/6 mice (TRAMP-C1 cells; discussion): able to lyse TRAMP-C1 cells
- IFNγ response with TRAMP-C1 vs MC38 cells (TRAMP-C1 cells; unpaired t-test, p<0.05): Significantly higher
- number of spots generated by splenocytes from immunised animals (splenocytes [2]): 590 spots
- fold higher IFNγ response vs PAP-114-128 immunisation (splenocytes [2]; C57Bl/6, FIG. 9A): 2 fold
- immune response on the basis of the IFNγ response, compared to immunisation with PAP-114-128 (splenocytes [2]; C57Bl/6 mice, discussion): significantly more potent
- IFNγ response of splenocytes pulsed with varying peptide concentrations vs native peptide group (splenocytes [2]; peptide concentrations of 1, 0.1, 0.01 and 0.001 mg/ml, p<0.05, FIG. 9B): significantly higher

Substance: ILLWQPIPV (PAP with Ala to Leu change at position 115) [PAP 135]
- binding to HLA-A2 (HLA-A2): strong binding

Substance: PAP-114-128: immunogenic class II PAP epitope that incorporates class I PAP-115-123 (MSAMTNLAALFPPEG; UniProt P15309 114-128, looked up, fragment)
- IFNγ response of splenocytes co-cultured with class II epitope (splenocytes [1]; 10 μg class II peptide): No significant IFNγ response
- number of spots generated by splenocytes from immunised animals (splenocytes [2]): 280 spots

Substance: SLMTNLAAL (PAP with A-L mutation at position 2 of peptide) [PAP-115-123 analogue peptide, 9-mer PAP analogue with alanine changed to leucine]
- IFNγ response of splenocytes co-cultured with class I PAP115-123 and PAP-115-123 analogue peptide epitopes (splenocytes [1]; 1 μg class I peptide, vs native peptide group, p<0.05): significantly higher
- number of spots, other 6 patients with prostate cancer ([3]; 1 μg peptide, 4×10^4 cells per well, 10-20 in controls): 50-100 spots
- number of spots, some PBMCs from individuals with benign disease ([3]; 1 μg peptide, spots in control wells also high): 50-100 spots
- peptide-specific IFNγ response in samples from individuals with benign disease ([3]; 1 μg peptide, listed as PAP115-123 analogue peptide): not responsive
- peptide-specific IFNγ response in samples from individuals with benign disease ([3]; 1 μg peptide, listed as PAP-115-123 analogue): no PAP-115-123 analogue specific IFNγ response
- responsiveness of PBMCs from patients with prostate cancer ([3]; discussion): greater
- PBMC samples from patients with prostate cancer with peptide-specific IFNγ response ([3]; of 10 samples, 7 days re-stimulation with the 15-mer, then 1 μg peptide, 48 hours, vs no peptide): 7
- number of IFNγ spots, highest patient ([3]; one prostate cancer patient, 1 μg peptide, 4×10^4 cells per well, 48 hours): 180 spots
